Measurements taken from patent publication US8076324B2, “Di(hetero)arylcyclohexane derivatives, their preparation, their use and pharmaceutical compositions comprising them” (Sanofi-Aventis, priority 2007, dated 2011).

Target: T1, myocardial ATP-sensitive potassium channel (SUR2A/Kir6.2) (UniProt Q61743+Q63563)
T1 construct: expressed in transfected cells
Assay: Rubidium efflux test on HEK293 cells transfected with SUR2A and Kir6.2 (myocardial action)
Format: cell-based, SUR2A from the rat, Kir6.2 from the mouse
Settings: HEK293 cells transfected with SUR2A/Kir6.2; KATP channels opened by rilmakalim; 25 min incubation; read-out: IC50 values for the inhibition of the rubidium efflux
Method: 1) Action on the SUR2A/Kir6.2 potassium channel (myocardial action) The action of the compounds on the ion transport through the myocardial ATP-sensitive potassium channel (SUR2A/Kir6.2) was determined in the rubidium efflux test system described below on human embryonic kidney cells HEK293 which were transfected with the components SUR2A and Kir6.2 (cf. Weyermann et al., Naunyn-Schmiedeberg's Arch. Pharmacol. 369, 374-381 (2004)).
The HEK293 cells were cultured at 37° C. in a humidified air atmosphere with 7% carbon dioxide in minimal essential medium with Earle's salts and L-glutamine (MEM, Gibco), which was supplemented with 10% fetal calf serum and zeozin (0.36 mg/ml) and geneticin (0.75 mg/ml). The transfection of the cells and the preparation of a cell line with stable expression of Kir6.2 from the mouse (accession number AF037313) and SUR2A from the rat (accession number D83598/L40624) were carried out as described in Giblin et al., J. Biol. Chem. 274, 22652-22659 (1999).
60 000 transfected cells per well were inoculated into a poly-D-lysine-coated 96-well microtiter plate (Greiner #650 201). After incubation for 24 h at 37° C., the cells were washed three times with buffer 1 (150 mM NaCl, 2 mM CaCl2, 0.8 mM NaH2PO4, 1 mM MgCl2, 5 mM glucose, 25 mM HEPES, pH=7.4). Subsequently, the buffer solution was replaced by 100 μl of rubidium loading buffer (buffer 1 with 5.4 mM RbCl) and the cells were incubated for a further 3 h at 37° C. The rubidium loading buffer was then removed by washing the cells three times with 200 μl each of potassium chloride wash buffer (buffer 1 with 5.4 mM KCl). After addition of the test substances (70 μl; dissolved in potassium chloride wash buffer with addition of DMSO), the KATP channels of the cells were opened by addition of 70 μl of rilmakalim (2 μM) (cf. Krause et al., Pflügers Arch. 429, 625-635 (1995)) and the cells were incubated at 37° C. for 25 min. Subsequently, the cell supernatants were transferred to a new 96-well microtiter plate and the cells were lyzed by addition of 200 μl of lysis buffer (buffer 1 with 1% Triton X-100). The concentrations of Rb^+ in the cell supernatant and in the cell lyzate were measured by means of atomic absorption spectroscopy using an Al 1200 apparatus (Aurora Instruments Ltd.).
The Rb^+ efflux rate was calculated as [Rb^+SN]/[Rb^+total], wherein [Rb^+SN] is the amount of Rb^+ in the cell supernatant and [Rb^+total] is the sum of the amounts of Rb^+ in the cell supernatant and cell lyzate. IC50 values for the inhibition of the rubidium efflux were calculated with the aid of the Hill equation.

T1 sequence (Q63563 whole entry): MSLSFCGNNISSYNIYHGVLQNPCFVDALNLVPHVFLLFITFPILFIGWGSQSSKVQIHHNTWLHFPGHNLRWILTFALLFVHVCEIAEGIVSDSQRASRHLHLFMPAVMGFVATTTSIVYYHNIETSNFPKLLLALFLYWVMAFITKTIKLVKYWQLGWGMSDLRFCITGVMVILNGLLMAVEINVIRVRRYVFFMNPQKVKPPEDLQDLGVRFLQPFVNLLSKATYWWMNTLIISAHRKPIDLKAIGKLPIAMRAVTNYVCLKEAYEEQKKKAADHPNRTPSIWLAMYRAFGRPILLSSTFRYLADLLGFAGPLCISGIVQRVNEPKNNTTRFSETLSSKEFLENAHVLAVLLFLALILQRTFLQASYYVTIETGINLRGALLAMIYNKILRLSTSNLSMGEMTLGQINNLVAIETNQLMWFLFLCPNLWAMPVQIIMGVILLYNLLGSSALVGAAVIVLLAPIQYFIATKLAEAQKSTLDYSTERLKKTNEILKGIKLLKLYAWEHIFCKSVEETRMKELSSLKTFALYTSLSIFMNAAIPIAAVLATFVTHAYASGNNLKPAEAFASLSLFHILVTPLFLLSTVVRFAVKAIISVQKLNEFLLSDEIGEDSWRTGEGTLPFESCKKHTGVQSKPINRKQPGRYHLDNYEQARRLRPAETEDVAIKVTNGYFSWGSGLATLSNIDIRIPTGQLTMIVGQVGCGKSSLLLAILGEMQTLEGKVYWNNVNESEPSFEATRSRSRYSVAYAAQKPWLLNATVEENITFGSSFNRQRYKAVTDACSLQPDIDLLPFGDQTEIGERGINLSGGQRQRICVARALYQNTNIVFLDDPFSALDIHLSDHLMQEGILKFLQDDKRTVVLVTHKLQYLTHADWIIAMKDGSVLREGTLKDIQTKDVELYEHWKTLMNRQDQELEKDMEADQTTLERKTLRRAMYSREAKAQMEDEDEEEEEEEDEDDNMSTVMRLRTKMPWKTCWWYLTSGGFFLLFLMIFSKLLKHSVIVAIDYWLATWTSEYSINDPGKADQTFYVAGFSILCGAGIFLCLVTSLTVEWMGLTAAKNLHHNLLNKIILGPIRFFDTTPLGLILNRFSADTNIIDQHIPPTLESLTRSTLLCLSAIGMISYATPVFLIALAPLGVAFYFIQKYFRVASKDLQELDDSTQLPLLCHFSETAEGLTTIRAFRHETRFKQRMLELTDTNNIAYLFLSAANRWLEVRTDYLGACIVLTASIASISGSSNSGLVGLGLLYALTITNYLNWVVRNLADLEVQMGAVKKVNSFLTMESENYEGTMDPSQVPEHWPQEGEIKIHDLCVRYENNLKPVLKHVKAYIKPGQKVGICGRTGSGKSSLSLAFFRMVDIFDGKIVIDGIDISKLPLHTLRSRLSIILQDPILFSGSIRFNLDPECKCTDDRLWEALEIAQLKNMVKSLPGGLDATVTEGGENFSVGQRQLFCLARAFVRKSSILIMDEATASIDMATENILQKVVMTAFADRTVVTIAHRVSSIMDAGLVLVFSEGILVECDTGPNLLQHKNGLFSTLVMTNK
T1 sequence (Q61743 whole entry): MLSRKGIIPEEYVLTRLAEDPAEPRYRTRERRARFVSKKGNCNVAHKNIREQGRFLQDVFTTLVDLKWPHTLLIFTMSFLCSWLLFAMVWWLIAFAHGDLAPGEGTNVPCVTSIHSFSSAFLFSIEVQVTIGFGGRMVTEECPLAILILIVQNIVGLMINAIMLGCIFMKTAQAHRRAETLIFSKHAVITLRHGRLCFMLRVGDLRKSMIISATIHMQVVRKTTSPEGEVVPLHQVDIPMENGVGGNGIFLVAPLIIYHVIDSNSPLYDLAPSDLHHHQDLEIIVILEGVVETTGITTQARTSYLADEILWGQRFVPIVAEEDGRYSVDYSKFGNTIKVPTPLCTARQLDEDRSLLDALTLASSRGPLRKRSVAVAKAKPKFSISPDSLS

IC50, < 1000 nM:
CCOC1(c2ccc(F)cc2)CCC(C(=O)O)(c2ccccc2)CC1 (centres unmarked) [Example 141]
O=C(O)C1(c2ccccc2)CCC(O)(c2ccc(Br)cc2)CC1 (centres unmarked) [Example 105]
O=C(O)[C@]1(c2ccccc2)CC[C@@](OCC2(c3ccccc3)COC2)(c2ccc(F)cc2)CC1 [Example 499, 4-(4-Fluorophenyl)-1-phenyl-4-(3-phenyloxetan-3-ylmethoxy)cyclohexanecarboxylic Acid]
COC1(c2ccc(C)c(F)c2)CCC(C(=O)O)(c2ccccc2)CC1 (centres unmarked) [Example 123]
COC1(c2cccc(F)c2)CCC(C(=O)O)(c2ccccc2)CC1 (centres unmarked) [Example 119]
O=C(O)C1(c2ccccc2)CCC(OCC2CC2)(c2ccc(-c3ccc(F)c(Br)c3)cc2)CC1 (centres unmarked) [Example 275]
Cc1nc([C@]2(OCCC(C)C)CC[C@](C(=O)O)(c3ccccc3)CC2)n(CC2CC2)c1C [Example 376]
O=C(O)[C@]1(c2ccccc2)CC[C@](OCC2CC2)(c2ccnc(-c3ccccc3)c2)CC1 [Example 489, Trans-4-Cyclopropylmethoxy-1-phenyl-4-(2-phenylpyridin-4-yl)cyclohexanecarboxylic Acid]
Cc1c(Br)nc([C@]2(Oc3ccccc3)CC[C@@](C(=O)O)(c3ccc(F)cc3)CC2)n1CC1CC1 [Example 404]
COc1ccc(-c2cc([C@]3(OCC4CC4)CC[C@@](C(=O)O)(c4ccccc4)CC3)n(CC3CC3)n2)cc1 [Example 319, Trans-4-Cyclopropylmethoxy-4-[2-cyclopropylmethyl-5-(4-methoxyphenyl)-2H-pyrazol-3-yl]-1-phenylcyclohexanecarboxylic Acid]
O=C(O)C1(c2ccccc2)CCC(O)(c2ccc(F)cc2F)CC1 (centres unmarked) [Example 95]
COC1(c2ccc(SC)cc2)CCC(C(=O)O)(c2ccccc2)CC1 (centres unmarked) [Example 163, 4-Methoxy-4-(4-methylsulfanylphenyl)-1-phenylcyclohexanecarboxylic Acid]
CCOC1(c2cccc(S(C)(=O)=O)c2)CCC(C(=O)O)(c2ccccc2)CC1 (centres unmarked) [Example 167]
COc1ccc(C2(OC)CCC(C(=O)O)(c3ccccc3)CC2)cc1F (centres unmarked) [Example 131]
O=C(O)[C@]1(c2ccc(F)cc2)CC[C@](Oc2ccccc2)(c2nc3ccccc3n2CC2CC2)CC1 [Example 406]
CCCOC1(c2cccc(S(C)(=O)=O)c2)CCC(C(=O)O)(c2ccccc2)CC1 (centres unmarked) [Example 168]
O=C(O)C1(c2ccccc2)CCC(OCC2CC2)(c2cnc3ccccc3c2)CC1 (centres unmarked) [Example 152]
O=C(O)C1(c2ccccc2)CCC(O)(c2ccc(C(F)(F)F)cc2)CC1 (centres unmarked) [Example 101]
O=C(O)[C@]1(c2ccccc2)CC[C@@](OCC2CC2)(c2ncc(C(F)(F)F)n2CC2CC2)CC1 [Example 378]
O=C(O)C1(c2ccccc2)CCC(O)(c2ccc(F)cc2)CC1 (centres unmarked) [Example 93]
Cc1nc([C@]2(OCCC(C)C)CC[C@](C(=O)O)(c3ccccc3)CC2)n(CC2CC2)c1Br [Example 375]
O=C(O)[C@]1(c2ccccc2)CC[C@@](OCC2CC2)(c2cc(-c3ccccc3)ccn2)CC1 [Example 485, Cis-4-Cyclopropylmethoxy-1-phenyl-4-(4-phenylpyridin-2-yl)cyclohexanecarboxylic Acid]
CSc1ccc(C2(O)CCC(C(=O)O)(c3ccccc3)CC2)cc1 (centres unmarked) [Example 161, 4-Hydroxy-4-(4-methylsulfanylphenyl)-1-phenylcyclohexanecarboxylic Acid]
O=C(O)C1(c2ccc(F)cc2)CCC(OCC2CC2)(c2ccc(F)cc2)CC1 (centres unmarked) [Example 249]
O=C(O)[C@]1(c2ccccc2)CC[C@@](OCC2CC2)(c2ccnc(-c3ccccc3)c2)CC1 [Example 488, Cis-4-Cyclopropylmethoxy-1-phenyl-4-(2-phenylpyridin-4-yl)cyclohexanecarboxylic Acid]
COC1(c2ccc(F)cc2)CCC(C(=O)O)(c2ccccc2F)CC1 (centres unmarked) [Example 235]
O=C(O)[C@]1(c2ccc(F)cc2)CC[C@@](OCC2CC2)(c2nc3ccccc3n2CC2CC2)CC1 [Example 366]
COC1(c2ccccc2S(C)(=O)=O)CCC(C(=O)O)(c2ccccc2)CC1 (centres unmarked) [Example 172]
O=C(O)[C@]1(c2ccccc2)CC[C@](OCC2CC2)(c2ncc(C(F)(F)F)n2CC2CC2)CC1 [Example 379]
O=C(O)C1(c2ccccc2)CCC(OCC2CC2)(c2cccc(C3CC3)c2)CC1 (centres unmarked) [Example 182, 4-Cyclopropylmethoxy-4-(3-cyclopropylphenyl)-1-phenylcyclohexanecarboxylic Acid]
O=C(O)C1(c2ccccc2)CCC(O)(c2ccc(Cl)c(C(F)(F)F)c2)CC1 (centres unmarked) [Example 104]
CSc1cc(F)ccc1C1(OCC2CC2)CCC(C(=O)O)(c2ccc(F)cc2)CC1 (centres unmarked) [Example 243]
O=C(O)[C@]1(c2ccccc2)CC[C@@](OCC2CC2)(c2nccn2CC2CC2)CC1 [Example 492, Cis-Cyclopropylmethoxy-4-(1-cyclopropylmethyl-1H-imidazol-2-yl)-1-phenylcyclohexanecarboxylic Acid]
Cc1c(Br)nc([C@]2(OCC3CC3)CC[C@](C(=O)O)(c3ccccc3)CC2)n1CC1CC1 [Example 373]
Cc1cn(CC2CC2)c([C@]2(OCC3CC3)CC[C@](C(=O)O)(c3ccc(F)cc3)CC2)n1 [Example 368]
CCCOC1(c2ccccc2S(C)(=O)=O)CCC(C(=O)O)(c2ccccc2)CC1 (centres unmarked) [Example 174]
CCCOC1(c2ccc(F)cc2)CCC(C(=O)O)(c2ccccc2)CC1 (centres unmarked) [Example 148]
O=C(O)C1(c2ccccc2)CCC(OCCC2CC2)(c2ccc(F)cc2)CC1 (centres unmarked) [Example 306, 4-(2-Cyclopropylethoxy)-4-(4-fluorophenyl)-1-phenylcyclohexanecarboxylic Acid]
COC1(c2ccc(F)cc2)CCC(C(=O)O)(c2cccc(F)c2)CC1 (centres unmarked) [Example 234]
COC1(c2ccc(F)cc2)CCC(C(=O)O)(c2ccc(OC(F)(F)F)cc2)CC1 (centres unmarked) [Example 236]
O=C(O)[C@]1(c2ccccc2)CC[C@@](OCC2CC2)(c2nc(C(F)(F)F)cn2CC2CC2)CC1 [Example 380]
COC1(c2cnc3ccccc3c2)CCC(C(=O)O)(c2ccccc2)CC1 (centres unmarked) [Example 136]
Cc1nc([C@]2(OCC3CC3)CC[C@](C(=O)O)(c3cccc(OC(F)(F)F)c3)CC2)n(CC2CC2)c1Cl [Example 409]
Cc1nc([C@]2(OCC3CC3)CC[C@](C(=O)O)(c3ccccc3)CC2)n(CC2CC2)c1C [Example 377]
